{"source": "patent EP1484329A1", "about": "“Indole derivatives with apoptosis inducing activity” (Zentaris GmbH, priority 2003, dated 2004)", "key": {"Topoisomerase II": {"biological_target": "Topoisomerase II (Homo sapiens, UniProt P11388)", "sequence (P11388 whole entry)": "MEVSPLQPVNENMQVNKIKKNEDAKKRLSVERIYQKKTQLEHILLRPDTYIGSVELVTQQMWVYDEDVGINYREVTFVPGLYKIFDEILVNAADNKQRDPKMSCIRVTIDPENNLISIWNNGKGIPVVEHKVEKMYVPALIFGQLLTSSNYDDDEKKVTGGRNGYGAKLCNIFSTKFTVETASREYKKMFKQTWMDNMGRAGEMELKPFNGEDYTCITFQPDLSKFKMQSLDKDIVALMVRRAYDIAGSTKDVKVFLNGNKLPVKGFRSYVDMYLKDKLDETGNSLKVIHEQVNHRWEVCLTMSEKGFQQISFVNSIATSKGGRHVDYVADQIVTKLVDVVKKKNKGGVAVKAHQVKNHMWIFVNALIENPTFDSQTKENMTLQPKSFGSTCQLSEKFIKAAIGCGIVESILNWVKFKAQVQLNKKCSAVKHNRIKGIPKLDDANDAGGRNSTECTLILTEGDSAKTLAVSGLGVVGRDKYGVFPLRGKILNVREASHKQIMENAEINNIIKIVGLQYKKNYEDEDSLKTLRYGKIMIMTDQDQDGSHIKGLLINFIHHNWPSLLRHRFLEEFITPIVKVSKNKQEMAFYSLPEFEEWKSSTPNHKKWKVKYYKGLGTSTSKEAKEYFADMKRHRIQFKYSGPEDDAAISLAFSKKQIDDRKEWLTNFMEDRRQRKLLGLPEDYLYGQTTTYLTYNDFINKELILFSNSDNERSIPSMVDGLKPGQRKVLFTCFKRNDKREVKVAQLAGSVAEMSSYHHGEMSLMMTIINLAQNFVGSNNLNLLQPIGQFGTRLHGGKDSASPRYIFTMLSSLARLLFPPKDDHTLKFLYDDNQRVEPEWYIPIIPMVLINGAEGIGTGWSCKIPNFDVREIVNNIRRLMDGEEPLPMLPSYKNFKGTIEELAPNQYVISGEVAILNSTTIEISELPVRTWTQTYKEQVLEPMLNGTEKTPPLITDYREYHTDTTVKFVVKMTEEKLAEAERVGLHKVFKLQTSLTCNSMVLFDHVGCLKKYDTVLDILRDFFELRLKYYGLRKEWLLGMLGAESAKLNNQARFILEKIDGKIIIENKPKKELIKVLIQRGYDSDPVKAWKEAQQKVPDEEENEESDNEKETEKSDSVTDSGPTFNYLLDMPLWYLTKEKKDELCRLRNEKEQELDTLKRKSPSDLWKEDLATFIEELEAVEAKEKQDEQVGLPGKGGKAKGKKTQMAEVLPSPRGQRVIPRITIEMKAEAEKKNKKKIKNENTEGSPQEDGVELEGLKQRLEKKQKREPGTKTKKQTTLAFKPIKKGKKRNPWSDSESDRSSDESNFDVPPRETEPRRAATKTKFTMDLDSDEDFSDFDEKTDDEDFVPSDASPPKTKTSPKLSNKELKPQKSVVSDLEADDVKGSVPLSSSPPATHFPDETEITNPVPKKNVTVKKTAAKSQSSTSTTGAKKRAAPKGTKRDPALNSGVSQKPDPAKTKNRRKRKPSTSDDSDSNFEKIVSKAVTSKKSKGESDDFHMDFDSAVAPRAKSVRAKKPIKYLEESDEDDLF", "assay": "pRYG relaxation assay for topoisomerase II activity", "type": "biochemical", "settings": "tested at 100, 31.6 and 10 µM", "procedure": "Mit diesem Relaxationsassay konnte zusätzlich die inhibitorische Eigenschaft der erfindungsgemäßen Verbindungen auf Topoisomerase II gezeigt werden. Die Testung der erfindungsgemäßen Verbindungen 2 und 4 erfolgte hierbei bei drei unterschiedlichen Konzentrationen (100, 31.6 und 10 µM). Zum Vergleich setzte man die Referenzverbindung m-Amsacrin bei einer Konzentration von 100µM ein.\nZu 1µL vorgelegter Testsubstanz (20fach konzentriert in 100% DMSO) werden 2µL 10x Assay Puffer, 0,5µL pRYG DNA (125ng), 0,5µL human Topoisomerase II (1 unit) und 16µL H2O pipettiert und gemischt. Die Reaktionsansätze werden in den auf 37°C vorgeheizten Heizblock gestellt und 30min bei 37°C inkubiert. Die Inkubation wird nach Zugabe von 4µL 5x Stop Puffer abgestoppt. Danach werden 10µL des Ansatzes auf ein 1,2% Agarosegel mit 0,25µg/mL Ethidiumbromid aufgetragen und 2,5h bei 100V aufgetrennt. Zum Schluß wird das Gel unter UV Anregung fotografiert (s. Graph 3). Die Quantifizierung der Inhibierung der pRYG Relaxation erfolgt mit der GeIPro® Analyzer Software (s. Graph 4). [formula] [formula]"}, "U-937 Zelllinie": {"system": "U-937 Zelllinie", "assay": "CDDplus nucleosome ELISA (apoptosis detection)", "type": "cell-based", "settings": "U-937, 0.1-1000nM, 4-24h", "procedure": "Zum Nachweis der Nucleosomen Partikel wurde der von der Firma Roche Molecular Biochemicals beschriebene CDD^plus Nucleosomen ELISA Test eingesetzt. Hierzu untersuchte man die Verbindung 2 an der U-937 Zelllinie bei unterschiedlichen Konzentrationen (0.1-1000nM) und bei unterschiedlicher zeitlicher Behandlung (4-24h) (s. Graph 7). [formula]"}, "[1]": {"type": "in vivo, Mäuse (CD-1 Mausstamm)", "settings": "for Effekte 7 Tage nach Gabe / Effekte 1 h nach Gabe / Effekte 2 h nach Gabe / Effekte 24 h nach Gabe / Temp. (rektal): single dose; for Temp. (rektal): measured 1 hour after application", "procedure": "Zur Beurteilung und Abschätzung möglicher Nebenwirkungen (neurodegenerative, phsychotrope Effekte etc.) bzw. toxischer Effekte ausgehend von der Verbindung 2 wurden Mäuse (CD-1 Mausstamm) in einem modifizierten Irwin-Grid Modell bei einmaliger Gabe (5, 10 und 20 mg/kg; p.o.) über eine Zeitdauer von 7 Tagen beobachtet (S. Irwin et al. Psychopharmacologia 1968, 13, 222-257). Die Ergebnisse hierzu werden in nachfolgender Tabelle 7 gezeigt: Tabelle 7: […]"}, "[2]": {"system": "humanen Xenograft-Modellen", "assay": "In vivo activity in xenograft models", "design": "species or system human", "settings": "Hautkrebs, Nierenzellkarzinom und Brustkrebs", "text": "Die in vivo Aktivität der Verbindung 2 wurde an verschiedenen humanen Xenograft-Modellen überprüft."}, "P388": {"system": "P388", "assay": "XTT proliferation assay, P388 (wild type)", "type": "cell-based, murine", "text": "Die Substanzen 1,2, 4-6 wurden in einem Proliferationstest an etablierten Tumorzelllinien auf ihre anti-proliferative Aktivität hin untersucht (D.A. Scuderio et al. Cancer Res. 1988, 48, 4827-4833). Der verwendete Test bestimmt die zelluläre Dehydrogenase-Aktivität und ermöglicht eine Bestimmung der Zellvitalität und indirekt der Zellzahl. Bei den verwendeten Zelllinien handelt es sich um die humane Cervixkarzinom Zelllinie KB/HeLa (ATCC CCL17), die ovariale Adenokarzinomzelllinie SKOV-3 (ATCC HTB77), die humane Glioblastom Zelllinie SF-268 (NCI 503138) und die Lungenkarzinom Zelllinie NCI-H460 (NCI 503473). Des weiteren wurde zur Untersuchung der Zellzyklus-spezifischen Wirkung der Substanz ein RKOp27 Zellsystem verwendet (M. Schmidt et al. Oncogene19(20):2423-9, 2000). Bei RKO handelt es sich um eine humane Kolonkarzinomlinie, in der der Zellzyklusinhibitor p27 ^kip1 mittels des Ecdyson Expressionssystems induziert zur Expression gebracht und zu einem Zellzyklusarrest spezifisch in G2 geführt werden kann. Eine unspezifisch wirkende Substanz hemmt die Proliferation unabhängig davon, ob die RKO Zelle in G1 oder G2 arretiert ist oder nicht. Zellzyklus-spezifische Substanzen wie beispielsweise Tubulininhibitoren sind hingegen nur dann zytotoxisch, wenn Zellen nicht arretiert sind und der Zellzyklus durchlaufen wird. In Tabelle 1 ist die zytotoxische bzw. wachstumshemmende Aktivität der beschriebenen Verbindungen mit / ohne Expression von p27^kip1gezeigt. Die getesteten Verbindungen zeigten im induzierten Zustand von p27^kiP1 keine zytotoxische Aktivität. Die Ergebnisse zeigen eine sehr potente Hemmung der Proliferation ausgewählter Tumorzelllinien durch die genannten Substanzen. Tabelle 1:\nZur weiteren Charakterisierung wurden die Substanzen 1,2,4-6 gegenüber multi drug resistenten Zelllinien im Vergleich zu den nicht-resistenten Wildtypzelllinien untersucht.\nBei den untersuchten Zelllinien handelt es sich um die murine L1210, die akute myeloische Leukaemie Zelllinie LT12 und um die resistenten Linien L1210/mdr und LT12/mdr. Außerdem wurden die murine P388 Zelllinie (methyl-cholanthreneinduced lymphoid neoplasm) sowie die Doxorubicin-resistente P388 als Testsysteme herangezogen."}, "[3]": {"system": "Salmonella thyphimurium TA98", "type": "cell-based", "settings": "for AMES TA98 mit S9: with rat liver S9; for AMES TA98 ohne S9: without S9", "procedure": "(§1) Die Verbindung 2 wurde in einem Fluktuationsassay gegenüber den Mutanten-Stämmen TA98 und TA100 des Bakteriums Salmonella thyphimurium bei drei Konzentrationen (2.5; 5 und 10µM) auf Mutagenität hin untersucht. Die Mutagenitätsuntersuchungen wurden ferner in Gegenwart des Rattenleberenzyms S9 durchgeführt."}, "[4]": {"system": "Salmonella thyphimurium TA100", "type": "cell-based", "settings": "for AMESTA100 mit S9: with rat liver S9; for AMESTA100 ohne S9: without S9", "procedure": "as §1"}}, "note": "Like-named read-outs stand apart in the source and are kept apart here.", "data": [{"smiles": "O=C(Nc1ccc2ncccc2c1)C(=O)c1cn(Cc2ccc(Cl)cc2)c2ccccc12", "note": "[Verbindung 2, 2-[1-(4-Chlor-benzyl)-1 H-indol-3-yl]-2-oxo-N-chinolin-6-yl-acetamid]", "values": [{"measurement": "Hemmung der Topoisomerase II (pRYG Relaxationsassay)", "setting": "Topoisomerase II", "value": "signifikante Hemmung der Topoisomerase II"}, {"measurement": "Nucleosomen im Zelllysat", "setting": "U-937 Zelllinie; cell lysate", "value": "konzentrations- und zeitabhängiger Anstieg von Nucleosomen im Zelllysat"}, {"measurement": "Nucleosomen im Zellkulturüberstand", "setting": "U-937 Zelllinie; culture supernatant", "value": "kein signifikanter Anstieg"}, {"measurement": "Effekte 7 Tage nach Gabe", "setting": "[1]; 5 mg/kg p.o.", "value": "Kein Effekt"}, {"measurement": "Effekte 1 h nach Gabe", "setting": "[1]; 5 mg/kg p.o.", "value": "Kein Effekt"}, {"measurement": "Effekte 2 h nach Gabe", "setting": "[1]; 5 mg/kg p.o.", "value": "Kein Effekt"}, {"measurement": "Effekte 24 h nach Gabe", "setting": "[1]; 5 mg/kg p.o.", "value": "2/6 Durchfall"}, {"measurement": "Temp. (rektal)", "setting": "[1]; 5 mg/kg p.o.", "value": "37.5 ± 0.2"}, {"measurement": "Effekte 7 Tage nach Gabe", "setting": "[1]; 10 mg/kg p.o.", "value": "Kein Effekt"}, {"measurement": "Effekte 1 h nach Gabe", "setting": "[1]; 10 mg/kg p.o.", "value": "1/6 Aufregung 1/6 Hyperreaktivität 1/6 Reizbarkeit 2/6 Berührungsrea ktivität 1/6 Stimmfähigkeit"}, {"measurement": "Effekte 2 h nach Gabe", "setting": "[1]; 10 mg/kg p.o.", "value": "2/6 Schwanzhypert onie 1/6 Hyperreaktivität 1/6 Reizbarkeit 1/6 Berührungsrea ktivität 1/6 Stimmfähigkeit"}, {"measurement": "Effekte 24 h nach Gabe", "setting": "[1]; 10 mg/kg p.o.", "value": "Kein Effekt"}, {"measurement": "Temp. (rektal)", "setting": "[1]; 10 mg/kg p.o.", "value": "37.1 ± 0.1"}, {"measurement": "Effekte 7 Tage nach Gabe", "setting": "[1]; 20 mg/kg p.o.", "value": "Kein Effekt"}, {"measurement": "Effekte 1 h nach Gabe", "setting": "[1]; 20 mg/kg p.o.", "value": "Kein Effekt"}, {"measurement": "Effekte 2 h nach Gabe", "setting": "[1]; 20 mg/kg p.o.", "value": "Kein Effekt"}, {"measurement": "Effekte 24 h nach Gabe", "setting": "[1]; 20 mg/kg p.o.", "value": "1/6 Durchfall"}, {"measurement": "Temp. (rektal)", "setting": "[1]; 20 mg/kg p.o.", "value": "37.4 ± 0.1"}, {"measurement": "toxische Effekte im modifizierten Irwin-Grid Test", "setting": "[1]; single dose 5, 10 and 20mg/kg, overall conclusion", "value": "keine toxischen Effekte"}, {"measurement": "Tumorwachstum in Xenograft-Modellen", "setting": "[2]", "value": "das Tumorwachstum in verschiedenen Xenograft-Modellen hemmt"}, {"measurement": "EC50", "setting": "P388; Mus musculus, P388, read-out: XTT Proliferationsassay, EC50 P388", "value": 0.037, "unit": "µg/mL"}, {"measurement": "AMES TA98 mit S9", "setting": "[3]; 2.5 µM", "value": "inaktiv"}, {"measurement": "AMES TA98 ohne S9", "setting": "[3]; 2.5 µM", "value": "inaktiv"}, {"measurement": "AMES TA98 mit S9", "setting": "[3]; 5 µM", "value": "inaktiv"}, {"measurement": "AMES TA98 ohne S9", "setting": "[3]; 5 µM", "value": "inaktiv"}, {"measurement": "AMES TA98 mit S9", "setting": "[3]; 10 µM", "value": "inaktiv"}, {"measurement": "AMES TA98 ohne S9", "setting": "[3]; 10 µM", "value": "inaktiv"}, {"measurement": "AMESTA100 mit S9", "setting": "[4]; 2.5 µM", "value": "inaktiv"}, {"measurement": "AMESTA100 ohne S9", "setting": "[4]; 2.5 µM", "value": "inaktiv"}, {"measurement": "AMESTA100 mit S9", "setting": "[4]; 5 µM", "value": "inaktiv"}, {"measurement": "AMESTA100 ohne S9", "setting": "[4]; 5 µM", "value": "inaktiv"}, {"measurement": "AMESTA100 mit S9", "setting": "[4]; 10 µM", "value": "inaktiv"}, {"measurement": "AMESTA100 ohne S9", "setting": "[4]; 10 µM", "value": "inaktiv"}]}, {"smiles": "O=C(Nc1ccc2ncccc2c1)C(=S)c1cn(Cc2ccc(Cl)cc2)c2ccccc12", "note": "[Verbindung 4, 2-[1-(4-Chlorbenzyl)-1 H-indol-3-yl]-N-chinolin-6-yl-2-thioxoacetamid]", "values": [{"measurement": "Hemmung der Topoisomerase II (pRYG Relaxationsassay)", "setting": "Topoisomerase II", "value": "signifikante Hemmung der Topoisomerase II"}]}, {"smiles": "O=C(Nc1cnc2nccnc2c1)C(=O)c1cn(Cc2ccc(Cl)cc2)c2ccccc12", "note": "[Verbindung 5, 2-[1-(4-Chlor-benzyl)-1H-indol-3-yl]-2-oxo-N-pyrido[2,3-b]pyrazin-7-yl-acetamid]", "values": [{"measurement": "EC50", "setting": "P388; Mus musculus, P388; read-out: XTT Proliferationsassay, EC50 P388", "value": 0.012, "unit": "µg/mL"}]}]}
